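Each compound was tested at five concentrations against cells in 96-well plates for 48 hours. GI50 marks 50% less growth.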 Activity calls are given as the source filed them. Cut-off read from the data, not from the text of the source: active = GI50 up to about 1.1 µM and inactive = higher.
Columns and labels:
Test in all cases: NCI anticancer screen, dose series, 48 h
EKVX = system: EKVX
TK-10 = system: TK-10
HCC 2998 = system: HCC 2998
A549 = system: A549
UO-31 = system: UO-31
KM-20L2 = system: KM-20L2
SNB-78 = system: SNB-78
HL-60 = system: HL-60
SF-268 = system: SF-268
CAKI-1 = system: CAKI-1
RPMI-8226 = system: RPMI-8226
RXF 393 = system: RXF 393
KM12 = system: KM12
HOP-92 = system: HOP-92
RXF 631 = system: RXF 631
IGROV-1 = system: IGROV-1
CCRF-CEM = system: CCRF-CEM
OVCAR-5 = system: OVCAR-5
M19-MEL = system: M19-MEL
K562 = system: K562
NCI-H23 = system: NCI-H23
LOX IMVI = system: LOX IMVI
DLD-1 = system: DLD-1
SK-MEL-5 = system: SK-MEL-5
OVCAR-4 = system: OVCAR-4
NCI-H226 = system: NCI-H226
SF-295 = system: SF-295
U-251 = system: U-251
OVCAR-3 = system: OVCAR-3
NCI-H522 = system: NCI-H522
UACC-257 = system: UACC-257
SW-620 = system: SW-620
SK-OV-3 = system: SK-OV-3
HCT-116 = system: HCT-116
SNB-75 = system: SNB-75
SF-539 = system: SF-539
OVCAR-8 = system: OVCAR-8
LXFL 529 = system: LXFL 529
Malme-3M = system: Malme-3M
ACHN = system: ACHN
DMS-273 = system: DMS-273
MOLT-4 = system: MOLT-4
UACC-62 = system: UACC-62
DMS-114 = system: DMS-114
HT-29 = system: HT-29
COLO 205 = system: COLO 205
M14 = system: M14
NCI-H460 = system: NCI-H460
786-0 = system: 786-0
SR = system: SR
HOP-18 = system: HOP-18
SK-MEL-28 = system: SK-MEL-28
XF498 = system: XF498
SK-MEL-2 = system: SK-MEL-2
SN12C = system: SN12C
SNB-19 = system: SNB-19
HOP-62 = system: HOP-62

Measured: GI50

CN(C)c1ncnc2c1Cc1ccccc1C(=O)N2C
inactive: EKVX > 100 µM | TK-10 > 100 µM | HCC 2998 > 100 µM | A549 > 100 µM | UO-31 > 100 µM | KM-20L2 > 100 µM | SNB-78 > 100 µM | HL-60 > 100 µM | SF-268 > 100 µM | CAKI-1 > 100 µM | RPMI-8226 > 100 µM | RXF 393 > 100 µM | KM12 > 100 µM | HOP-92 > 100 µM | RXF 631 > 100 µM | IGROV-1 > 100 µM | CCRF-CEM > 100 µM | OVCAR-5 > 100 µM | M19-MEL > 100 µM | K562 > 100 µM | NCI-H23 > 100 µM | LOX IMVI > 100 µM | DLD-1 > 100 µM | SK-MEL-5 > 100 µM | OVCAR-4 > 100 µM | NCI-H226 > 100 µM | SF-295 > 100 µM | U-251 > 100 µM | OVCAR-3 > 100 µM | NCI-H522 > 100 µM | UACC-257 > 100 µM | SW-620 > 100 µM | SK-OV-3 > 100 µM | HCT-116 > 100 µM | SNB-75 > 100 µM | SF-539 > 100 µM | OVCAR-8 > 100 µM | LXFL 529 > 100 µM | Malme-3M > 100 µM | ACHN > 100 µM | DMS-273 > 100 µM | MOLT-4 > 100 µM | UACC-62 > 100 µM | DMS-114 > 100 µM | HT-29 > 100 µM | COLO 205 > 100 µM | M14 > 100 µM | NCI-H460 > 100 µM | 786-0 > 100 µM | SR > 100 µM | HOP-18 > 100 µM | SK-MEL-28 > 100 µM | XF498 > 100 µM | SK-MEL-2 > 100 µM | SN12C > 100 µM | SNB-19 > 100 µM | HOP-62 > 100 µM

Source: ChEMBL document CHEMBL1201862, “PubChem BioAssay data set” (2004)
